Data set [1] in a line: stability test in liver microsomes (rat). Type of data set: in vitro ADME. The settings on record: Rat liver microsomes. The protocol:
(§1) The stability of the compound of the present invention in liver microsomes of rat, monkey and human was determined. Tested compounds of the present invention were the compounds in Examples 6 and 8 , and a control drug was Zavegepant.
(§2) 3.2 An appropriate amount of liver microsome solution was transferred into a 1 mL 96-deep-well plate, added with a tested drug liquid (or a probe substrate solution), and pre-incubated in a thermal mixer at 37°C for 5 minutes. Two parts of mixed solutions were taken out from the system and added with 1×PBS to replace NADPH, and the mixed solutions were taken out at 0 and 60 minutes respectively, and added with methanol (containing an internal standard) to terminate the reaction. In the remaining mixed system, each well was added with NADPH to start the reaction. In the tested substance group, mixed solutions were taken out from the system at 0, 5, 15, 30, 45 and 60 minutes, and in the control group, mixed solutions were taken out from the system at 0, 30 and 60 minutes, and the mixed solutions were added methanol (containing an internal standard) to terminate the reaction. All samples of the terminated reaction were mixed evenly and centrifuged in a centrifuge at 3800 rpm for 15 minutes, and the supernatant was taken for LC-MS/MS analysis.
(§3) A peak area was determined by an extracted ion chromatogram. A slope value k was determined by linear regression of a remaining percentage of a parent drug relative to a natural logarithm of an incubation time curve. According to the slope, in-vitro half-life periods (t1/2) were respectively calculated, and in-vitro intrinsic clearance rates (CLint, represented by µL/min/mg protein) were calculated. Calculation formulas were as follows: t1/2 = ln2/k = 0.693/k; and CLint = 0.693/t1/2 /liver microsome protein concentration [formula]
In general terms: Liver microsomes are a subcellular fraction often used to study metabolism.

A short description of data set [2]: stability test in liver microsomes (monkey). Type of data set: in vitro ADME. The settings on record: Monkey liver microsomes. On the procedure:
as §1, §2, §3

Data set [3] deals with Plasma of SD rat. Nature of the data set: plasma protein binding rate test, equilibrium dialysis (rat). Type of data set: in vitro ADME. Conditions: 1 µM, 37°C, 6 hours. On the procedure: (§4) Protein binding rates of the compound of the present invention in plasma of rat, monkey and human were determined by an equilibrium dialysis method. Tested compounds of the present invention were the compounds in Examples 6 and 8.
(§5) 3.1 A dry dialysis membrane was rinsed with ultrapure water for 2-3 times, and then soaked in a phosphate buffer for 1 hour for later use. Polytetrafluoroethylene module was soaked in 20% ethanol for 30 minutes, and then surface moisture was dried with dust-free paper for later use. The pretreated dialysis membrane was assembled into a dialysis plate according to the product specification, and one side (receptor compartment) of an osmotic membrane in each dialysis well was added with 100 µL of receptor fluid (100 mM phosphate buffer solution plus 0.002% Tween 80).
(§6) 3.2 The plasma was put into a centrifuge tube, a working solution of a tested substance was added into the plasma, wherein a final concentration was 1 µM, and the mixture was turned upside down and mixed evenly (this step was carried out in ice bath). 20 µL of drug-containing plasma each was taken, and was respectively transferred to a 96-well sample plate according to two parts in parallel, and stored in a refrigerator at -20°C as a T0 sample.
(§7) 3.3 Another 100 µL of the above drug-containing plasma was transferred to the other side (sample compartment) of the membrane in the dialysis device according to two parts in parallel, and incubated under vibration at a constant temperature of 37°C for 6 hours. […]
(§8) A plasma protein binding rate and a recovery rate of the compound in plasma were calculated by the following formulas: dissociation percentage (%) = CB /CA; [formula] plasma protein binding rate (fb%) = 1−dissociation percentage (%); [formula] recovery rate (%) = (CB+CA)/CT0 [formula] wherein CB was a concentration of the compound in the receptor fluid after equilibrium dialysis; CA was a concentration of the compound in the drug-containing plasma after equilibrium dialysis; and CT0 was an initial concentration of the compound in plasma.
On the technique in general: In equilibrium dialysis only unbound substance equilibrates across the membrane.

Data set [4] concerns Plasma of cynomolgus monkey. In words: plasma protein binding rate test, equilibrium dialysis (monkey). The format is in vitro ADME. Conditions: 1 µM, 37°C, 6 hours. On the procedure: as §4, §5, §6, §7, §8
A short description of data set [5]: PK properties in SD rats with or without 0.2% alkyl glycoside (DDM). Conditions: for Tmax: rat, in vivo; for Tmax shortened by: 0.2% DDM vs without DDM; for Tmax(DDM 0.2%)/ Tmax(DDM 0%): 0.2% dodecyl-β-D-maltoside (DDM) vs without DDM. Type of data set: in vivo. An excerpt: During preparation of a test sample in the Test Example 5, a drug solution group with 0.2% dodecyl-β-D-maltoside (DDM) was also established and prepared in parallel, so as to compare and observe changes of PK properties in rats administered with the drug solution group with 0.2% dodecyl-β-D-maltoside (DDM) and the drug solution group without dodecyl-β-D-maltoside (DDM).

Data set [6] in a line: PK properties in SD rats with different concentrations of alkyl glycoside (0.05% and 5% DDM). Type of data set: in vivo. Conditions: for Tmax: rat, in vivo; for Tmax(DDM 0.05%)/ Tmax(DDM 0%): 0.05% DDM vs without DDM; for Tmax(DDM 5%)/ Tmax(DDM 0%): 5% DDM vs without DDM. The text has this: During preparation of a test sample in the Test Example 7, drug solution groups with 0.05% and 5% dodecyl-β-D-maltosides (DDM) were established and prepared in parallel, so as to compare and observe changes of PK properties in rats administered with the drug solution groups with two different concentrations of dodecyl-β-D-maltosides (DDM).

[7] abbreviates: intranasal, 0.05% alkyl glycoside vs without.
[8] abbreviates: intranasal, 5% alkyl glycoside vs without.

The structures appear in SMILES notation.

As to `Cc1cc(C[C@@H](NC(=O)N2CCC(c3cc4c([nH]c3=O)SCC4)CC2)C(=O)N2CCN(C3CCN(C)CC3)CC2)cc2cn[nH]c12` [Example 8, (R)-N-(3-(7-methyl-1H-indazole-5-yl)-1-(4-(1-methylpiperidine-4-yl)piperazine-1-yl)-1-oxopropan-2-yl)-4-(6-oxo-2,3,6,7-tetrahydrothieno[2,3-b]pyridine-5-yl)piperidine-1-formamide], the “% remaining (60 min)” value is on record as 90.7% in data set [1] and 61.6% in data set [2]. In addition, the figures for the “fb (%)” value in data set [3] and in data set [4] were 69.4% and 47.7%, respectively. Also, the Tmax in data set [5] (Sprague-Dawley, inhaled or intranasal, 0.2% DDM) was found to be 10 min; in data set [5] (Sprague-Dawley, inhaled or intranasal, not added with DDM (0%DDM)) it was 12.5 min; in data set [6] (Sprague-Dawley, inhaled or intranasal, 0.05% alkyl glycoside) it was 10 min; in data set [6] (Sprague-Dawley, inhaled or intranasal, 5% alkyl glycoside), 4.98 min; in data set [6] (Sprague-Dawley, inhaled or intranasal, without alkyl glycoside), 12 min. For the same molecule, the entries for the “Tmax shortened by” value in data set [5] (intranasal), in data set [6] (setting [7]) and in data set [6] (setting [8]) were 20.1%, 20% and 60%, respectively. Also, the “Tmax(DDM 0.2%)/ Tmax(DDM 0%)” value in data set [5] (intranasal) came out at 79.9%. Also, the “Tmax(DDM 0.05%)/ Tmax(DDM 0%)” value in data set [6] (intranasal) is listed as 79.9%. Further, the “Tmax(DDM 5%)/ Tmax(DDM 0%)” value in data set [6] (intranasal) was 39.7%.

Turning to `Cc1cc(C[C@@H](NC(=O)N2CCC(c3cc4c([nH]c3=O)SCCC4)CC2)C(=O)N2CCN(C3CCN(C)CC3)CC2)cc2cn[nH]c12` [Example 6, (R)-N-(3-(7-methyl-1H-indazole-5-yl)-1-(4-(1-methylpiperidine-4-yl)piperazine-1-yl)-1-oxopropan-2-yl)-4-(7-oxo-3,4,7,8-tetrahydro-2H-thiopyrano[2,3-b]pyridine-6-yl)piperidine-1-formamide], the CLint in data set [1] was 2.4 µL/min/mg; in data set [2], 0.8 µL/min/mg. The “% remaining (60 min)” value in data set [1] was determined as 91.5%; in data set [2] it was 96.9%. Also, the entries for the “fb (%)” value in data set [3] and in data set [4] were 90.0% and 61.3%, respectively. Also, the “Tmax shortened by” value in data set [5] (intranasal) is 83.3%; in data set [6] (setting [7]) it was 75%; in data set [6] (setting [8]), 91.7%. The “Tmax(DDM 0.2%)/ Tmax(DDM 0%)” value in data set [5] (intranasal) worked out at 16.7%. In addition, the Tmax in data set [5] (intranasal, 0.2% DDM) turned out to be 10 min; in data set [5] (intranasal, not added with DDM (0%DDM)), 60 min; in data set [6] (intranasal, 0.05% alkyl glycoside), 15 min; in data set [6] (intranasal, 5% alkyl glycoside), 4.98 min; in data set [6] (intranasal, without alkyl glycoside), 60 min. In data set [6] (intranasal), the “Tmax(DDM 0.05%)/ Tmax(DDM 0%)” value is listed as 25.0%. Also, in data set [6] (intranasal), the “Tmax(DDM 5%)/ Tmax(DDM 0%)” value was determined as 8.3%.

As usually defined, the Tmax is the time at which the peak concentration occurs.

The values are drawn from EP4781986A1, “PHARMACEUTICAL COMPOSITION HAVING IMPROVED PHARMACOKINETIC PROPERTIES” (Sichuan Purity Pharmaceutical Co., Ltd., priority 2023, dated 2025).
